Experimental data taken from US20180244611A1, “Modulators of the Cystic Fibrosis Transmembrane Conductance Regulator Protein and Methods of Use” (AbbVie S.à.r.l., priority 2017, published 2018).

Assays:
F508delCFTR [1] = biological target: T1, F508delCFTR (Homo sapiens, UniProt P13569, DEL508-508); experiment: Cell Surface Expression-Horse Radish Peroxidase (CSE-HRP) assay, test compound with co-corrector; type: cell-based; conditions: with 2 μM co-corrector; for Maximum % activity (with co-corrector): maximum at any tested concentration, normalized to positive control;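 for Maximum % activity (with co-corrector): percent of 2 µM positive control corrector over DMSO; co-corrector is that same compound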
T1 construct: expressed in transfected cells; host or cells: CFBE41o- human lung-derived epithelial cells (CFBE41o-F508delCFTR-HRP), doxycycline-inducible
T1 sequence (P13569 with tags, fused parts or gaps DEL508-508): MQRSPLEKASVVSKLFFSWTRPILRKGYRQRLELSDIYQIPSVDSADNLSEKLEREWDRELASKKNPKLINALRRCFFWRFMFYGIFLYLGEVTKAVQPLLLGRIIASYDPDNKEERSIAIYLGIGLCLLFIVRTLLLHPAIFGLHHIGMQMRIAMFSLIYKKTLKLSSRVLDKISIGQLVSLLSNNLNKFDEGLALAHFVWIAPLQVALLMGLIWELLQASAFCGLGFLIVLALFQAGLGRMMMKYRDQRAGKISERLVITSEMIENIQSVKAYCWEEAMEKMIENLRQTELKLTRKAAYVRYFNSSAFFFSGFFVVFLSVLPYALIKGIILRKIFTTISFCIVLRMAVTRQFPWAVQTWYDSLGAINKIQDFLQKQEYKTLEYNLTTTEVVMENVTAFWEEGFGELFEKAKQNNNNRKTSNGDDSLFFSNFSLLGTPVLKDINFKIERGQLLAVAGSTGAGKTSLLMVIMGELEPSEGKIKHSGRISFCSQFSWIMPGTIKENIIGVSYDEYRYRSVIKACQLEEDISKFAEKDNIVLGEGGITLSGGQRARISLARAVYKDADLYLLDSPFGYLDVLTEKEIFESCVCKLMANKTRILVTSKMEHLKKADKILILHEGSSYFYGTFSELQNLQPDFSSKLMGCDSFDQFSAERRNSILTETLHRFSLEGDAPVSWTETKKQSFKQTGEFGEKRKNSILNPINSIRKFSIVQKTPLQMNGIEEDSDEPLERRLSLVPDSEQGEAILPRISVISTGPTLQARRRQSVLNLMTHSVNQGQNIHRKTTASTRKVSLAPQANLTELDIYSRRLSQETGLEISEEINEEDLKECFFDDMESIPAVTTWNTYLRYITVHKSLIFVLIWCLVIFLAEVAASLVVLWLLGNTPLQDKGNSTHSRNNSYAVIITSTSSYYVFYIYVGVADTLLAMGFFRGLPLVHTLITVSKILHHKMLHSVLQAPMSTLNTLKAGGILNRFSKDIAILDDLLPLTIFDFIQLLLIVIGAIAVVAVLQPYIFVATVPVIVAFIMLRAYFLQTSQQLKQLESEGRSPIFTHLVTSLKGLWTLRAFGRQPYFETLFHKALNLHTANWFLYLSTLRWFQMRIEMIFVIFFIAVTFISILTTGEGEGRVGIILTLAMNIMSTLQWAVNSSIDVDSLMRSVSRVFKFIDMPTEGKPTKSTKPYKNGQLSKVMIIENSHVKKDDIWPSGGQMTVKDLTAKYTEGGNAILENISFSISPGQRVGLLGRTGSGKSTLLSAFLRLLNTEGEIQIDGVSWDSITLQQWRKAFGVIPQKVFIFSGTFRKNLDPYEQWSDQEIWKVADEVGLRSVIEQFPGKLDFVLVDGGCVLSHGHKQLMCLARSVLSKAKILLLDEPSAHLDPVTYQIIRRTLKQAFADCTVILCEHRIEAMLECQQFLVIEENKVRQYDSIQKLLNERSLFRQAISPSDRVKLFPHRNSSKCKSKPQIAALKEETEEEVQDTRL
Method in brief: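 Surface-expression read-out: luminol luminescence from an HRP tag in the fourth exofacial loop of F508delCFTR, in doxycycline-induced (0.5 μg/mL, 72 h) CFBE41o- cells. Compound plus 2 μM co-corrector added for 18-24 h at 33° C., 8-point 3-fold series up to 20 μM. EC50 from a sigmoidal fit with variable Hill slope, normalised to positive control, triplicate plates.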

F508delCFTR [2] = biological target: T1, F508delCFTR; experiment: Cell Surface Expression-Horse Radish Peroxidase (CSE-HRP) assay, test compound without co-corrector; type: cell-based; conditions: for Emax: maximum at any tested concentration, normalized to positive control, without co-corrector; for EC50: test compound without co-corrector;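 for Emax: percent of on-plate 2 µM positive control corrector response over DMSO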
Method in brief: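 Compound without co-corrector was tested at eight 3-fold concentrations, top 20 μM, for 18-24 h at 33° C on doxycycline-induced (0.5 μg/mL, 72 h) CFBE41o- F508delCFTR-HRP cells. After DPBS washes, luminol luminescence gave % activity relative to on-plate positive control minus DMSO; EC50 came from triplicate-plate sigmoidal fitting.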

SMILES	Maximum % activity (with co-corrector) (F508delCFTR [1])	EC50 (F508delCFTR [1])	Emax (F508delCFTR [2])	EC50 (F508delCFTR [2])
Cc1ccccc1S(=O)(=O)NC(=O)C1CCc2ccccc2C1 (stereo not drawn) [III-10]	+ (<150)	≥ 10 µM	< 50%	≥ 10 µM
COc1cccc2c1CCC2C(=O)NS(=O)(=O)c1c(C)nn(C)c1C (stereo not drawn) [III-11]	+ (<150)	≥ 10 µM	< 50%	≥ 10 µM
COc1cccc2c1CCC2C(=O)NS(=O)(=O)c1ccc(C)cn1 (stereo not drawn) [III-13]	+ (<150)	≥ 10 µM	< 50%	≥ 10 µM
COc1cccc2c1CCC2C(=O)NS(=O)(=O)C1CCOCC1 (stereo not drawn) [III-14]	+ (<150)	≥ 10 µM	< 50%	≥ 10 µM
COCCCS(=O)(=O)NC(=O)C1CCc2c(OC)cccc21 (stereo not drawn) [III-15]	+ (<150)	≥ 10 µM	< 50%	≥ 10 µM
COCCS(=O)(=O)NC(=O)C1CCc2c(OC)cccc21 (stereo not drawn) [III-16]	+ (<150)	≥ 10 µM	< 50%	≥ 10 µM
CCCS(=O)(=O)NC(=O)C1CCc2c(OC)cccc21 (stereo not drawn) [III-17]	+ (<150)	≥ 10 µM	< 50%	≥ 10 µM
COc1ccccc1S(=O)(=O)NC(=O)C1CCc2c(Cl)cccc21 (stereo not drawn) [III-18]	+ (<150)	≥ 10 µM	< 50%	≥ 10 µM
Cc1ccc(S(=O)(=O)NC(=O)C2CCc3c(Cl)cccc32)nc1 (stereo not drawn) [III-19]	+ (<150)	≥ 10 µM	< 50%	≥ 10 µM
COc1cccc2c1CCC2C(=O)NS(=O)(=O)c1ccc(O)cc1 (stereo not drawn) [III-20]	+ (<150)	≥ 10 µM	< 50%	≥ 10 µM
COc1cccc2c1CCC2C(=O)NS(=O)(=O)Cc1ccccc1 (stereo not drawn) [III-21]	+ (<150)	≥ 10 µM	< 50%	≥ 10 µM
COc1cccc2c1CCC2C(=O)NS(=O)(=O)c1ccc2cc(O)ccc2c1 (stereo not drawn) [III-22]	+ (<150)	≥ 10 µM	< 50%	≥ 10 µM
COc1cccc2c1CCC2C(=O)NS(=O)(=O)c1nnc(NC(C)=O)s1 (stereo not drawn) [III-24]	+ (<150)	≥ 10 µM	< 50%	≥ 10 µM
COc1cccc2c1CCC2C(=O)NS(=O)(=O)c1ccc(S(C)(=O)=O)cc1 (stereo not drawn) [III-26]	+ (<150)	≥ 10 µM	< 50%	≥ 10 µM
COc1cccc2c1CCC2C(=O)NS(=O)(=O)c1cccc([N+](=O)[O-])c1 (stereo not drawn) [III-27]	+ (<150)	≥ 10 µM	< 50%	≥ 10 µM
COc1cccc2c1CCC2C(=O)NS(=O)(=O)c1ccc(Cl)c([N+](=O)[O-])c1 (stereo not drawn) [III-28]	+ (<150)	≥ 10 µM	< 50%	≥ 10 µM
COc1cccc2c1CCC2C(=O)NS(=O)(=O)c1cc([N+](=O)[O-])ccc1C (stereo not drawn) [III-30]	+ (<150)	≥ 10 µM	< 50%	≥ 10 µM
COc1cccc2c1CCC2C(=O)NS(=O)(=O)c1ccc(NC(C)=O)cc1C (stereo not drawn) [III-31]	+ (<150)	≥ 10 µM	< 50%	≥ 10 µM
COc1cccc2c1CCC2C(=O)NS(=O)(=O)c1ccc(Cl)cc1 (stereo not drawn) [III-32]	+ (<150)	≥ 10 µM	< 50%	≥ 10 µM
COc1cccc2c1CCC2C(=O)NS(=O)(=O)c1ccc2ccccc2c1 (stereo not drawn) [III-34]	+ (<150)	≥ 10 µM	< 50%	≥ 10 µM

Next, values leading:

Maximum % activity (with co-corrector) (F508delCFTR [1])	EC50 (F508delCFTR [1])	Emax (F508delCFTR [2])	EC50 (F508delCFTR [2])	SMILES
+++ (≥350)	< 3 µM	≥ 150%	3 to 10 µM	COc1ccc(-c2ccc(C)nc2)c2c1CCCC2C(=O)NS(=O)(=O)c1cccc2ccccc12 (stereo not drawn) [II-122]
+++ (≥350)	3 to 10 µM	≥ 150%	3 to 10 µM	CCOc1ccc2c(S(=O)(=O)NC(=O)C3CCc4c(Br)ccc(OC)c43)cccc2n1 (stereo not drawn) [II-123]
+++ (≥350)	< 3 µM	≥ 150%	< 3 µM	COc1ccc(N2CCCC2)c2c1C(C(=O)NS(=O)(=O)c1cccc3ccccc13)CCC2 (stereo not drawn) [II-124]
+++ (≥350)	3 to 10 µM	50 to 150%	3 to 10 µM	CCC1(C(=O)NS(=O)(=O)c2cccc(N3CCCCC3)c2C)CCc2c(Cl)cccc21 (stereo not drawn) [II-125]
+++ (≥350)	3 to 10 µM	50 to 150%	3 to 10 µM	CCC1(C(=O)NS(=O)(=O)c2cccc(N3CC(F)(F)C3)c2C)CCc2c(Cl)cccc21 (stereo not drawn) [II-126]
+++ (≥350)	< 3 µM	50 to 150%	3 to 10 µM	CCC1(C(=O)NS(=O)(=O)c2cccc(N3CCC(F)(F)C3)c2C)CCc2c(Cl)cccc21 (stereo not drawn) [II-127]
+++ (≥350)	< 3 µM	≥ 150%	< 3 µM	COc1ccc(-c2ccc(C(F)(F)F)nc2)c2c1CCCC2C(=O)NS(=O)(=O)c1cccc2ccccc12 (stereo not drawn) [II-129]
+++ (≥350)	< 3 µM	≥ 150%	< 3 µM	COc1ccc(C2=CCOCC2)c2c1CCCC2C(=O)NS(=O)(=O)c1cccc2ccccc12 (stereo not drawn) [II-130]
+++ (≥350)	< 3 µM	≥ 150%	< 3 µM	COc1ccc(-c2ccc(C3CC3)nc2)c2c1CCCC2C(=O)NS(=O)(=O)c1cccc2ccccc12 (stereo not drawn) [II-131]
+++ (≥350)	< 3 µM	≥ 150%	< 3 µM	COc1ccc(Br)c2c1C(C(=O)NS(=O)(=O)c1cccc3nc(C(C)C)ccc13)CC2 (stereo not drawn) [II-132]
+++ (≥350)	3 to 10 µM	≥ 150%	3 to 10 µM	COc1ccc(Br)c2c1C(C(=O)NS(=O)(=O)c1cccc3c(OC)cccc13)CC2 (stereo not drawn) [II-133]
+++ (≥350)	< 3 µM	≥ 150%	3 to 10 µM	COC(=O)c1ccc(OC)c2c1CCC2C(=O)NS(=O)(=O)c1cccc2ccccc12 (stereo not drawn) [II-134]
+++ (≥350)	3 to 10 µM	≥ 150%	3 to 10 µM	COC(=O)c1cccc2c(S(=O)(=O)NC(=O)C3CCc4c(Br)ccc(OC)c43)cccc12 (stereo not drawn) [II-135]
+++ (≥350)	3 to 10 µM	≥ 150%	3 to 10 µM	O=C(NS(=O)(=O)c1cccc2ccccc12)C1CCCc2c(Cl)ccc(OCCN3CCOCC3)c21 (stereo not drawn) [II-136]
+ (<150)	≥ 10 µM	< 50%	≥ 10 µM	CC1(C(=O)NS(=O)(=O)Cc2ccccc2)CCc2c(Cl)cccc21 (stereo not drawn) [III-3]
+ (<150)	≥ 10 µM	< 50%	≥ 10 µM	Cc1nn(C)c(C)c1S(=O)(=O)NC(=O)C1CCc2c(Cl)cccc21 (stereo not drawn) [III-4]
+ (<150)	≥ 10 µM	< 50%	≥ 10 µM	COCCS(=O)(=O)NC(=O)C1CCc2c(Cl)cccc21 (stereo not drawn) [III-5]
+ (<150)	≥ 10 µM	< 50%	≥ 10 µM	CCCS(=O)(=O)NC(=O)C1CCc2c(Cl)cccc21 (stereo not drawn) [III-6]
++ (≥150 and <350)	3 to 10 µM	< 50%	≥ 10 µM	COc1cccc2c1CC(C(=O)NS(=O)(=O)c1ccccc1C)CC2 (stereo not drawn) [III-7]
+ (<150)	≥ 10 µM	< 50%	≥ 10 µM	COc1ccc2c(c1)CCC2C(=O)NS(=O)(=O)c1ccccc1C (stereo not drawn) [III-9]
+ (<150)	3 to 10 µM	< 50%	≥ 10 µM	COc1ccccc1S(=O)(=O)NC(=O)C1CCc2c(OC)cccc21 (stereo not drawn) [III-12]
++ (≥150 and <350)	3 to 10 µM	< 50%	3 to 10 µM	COc1cccc2c1CCC2C(=O)NS(=O)(=O)c1ccc(C)cc1 (stereo not drawn) [III-23]
+ (<150)	3 to 10 µM	< 50%	≥ 10 µM	COc1cccc2c1CCC2C(=O)NS(=O)(=O)c1cc(C)ccc1C(C)C (stereo not drawn) [III-25]
++ (≥150 and <350)	< 3 µM	< 50%	≥ 10 µM	COc1cccc2c1CCC2C(=O)NS(=O)(=O)c1ccc(Cl)cc1[N+](=O)[O-] (stereo not drawn) [III-33]
++ (≥150 and <350)	3 to 10 µM	< 50%	≥ 10 µM	COc1cccc2c1CCC2C(=O)NS(=O)(=O)c1cccc(Cl)c1 (stereo not drawn) [III-35]
